From patent publication US4921855A, “New Histidyl amino acid derivatives, and pharmaceutical composition comprising the same” (Fujisawa Pharmaceutical Co., Ltd., priority 1987, dated 1990)

Tests used:
plasma renin = assay: Inhibition of plasma renin activity (PRA) after oral administration to sodium-depleted cynomolgus monkeys; format: in vivo, cynomolgus monkeys (Macaca fascicularis); details: sodium-depleted conscious monkeys, 0-6 hours
Experimental: (§1) Male or female cynomolgus monkeys (Macaca fascicularis) weighing about 2.5-3.5 kg were used. Sodium depletion was achieved by administering furosemide, 15 mg/kg subcutaneously one day before and then 10 mg/kg intravenously 30 minutes before the administration of the test compound.
(§2) Test compounds were dissolved in diluted equimolar hydrochloric acid (pH 5-6) and orally administered to conscious and trained monkeys placed in restraining chairs with pneumatic cuff positioned around the arm for oscillometric measurement of mean arterial blood pressure (MAP) (Model BP-203 NPJ, manufactured by Nippon Colin).
Blood samples were collected at 0, 0.5, 1, 2, 4 and 6 hours after dosing from the antecubital vein of the monkey into disodium salt of EDTA coated tubes, centrifuged for 10 min. (3000 rpm, 4° C.) and plasma was obtained for determination of plasma renin activity (PRA). PRA was measured as the rate of Ang I formation with the same principle as illustrated in Test 1. 100 μl of sample plasma was mixed with 100 μl of the solution of angiotensinase inhibitors (3 mM 8-hydroxyquinoline sulfate and 5 mM 2,3-dimercaptopropanol, SB-REN-1, SORIN BIOMEDICA, Italy). Half (100 μl) of the mixture was incubated at 37° C. for one hour and Ang I formed was determined by a commercial RIA kit (DINABOTT). The remaining half (100 μl) of the reaction mixture was kept at 4° C. for one hour to measure and correct for the preexisting Ang I in the plasma. Percentage inhibition of PRA was calculated by the following formula: [formula]
A37 : the amount of angiotensin I formed by incubation at 37° C. of plasma collected before dosing the test compound
A4 : the amount of angiotensin I formed by keeping at 4° C. of plasma collected before dosing the test compound
D37 : the amount of angiotensin I formed by incubation at 37° C. of plasma collected after dosing the test compound
D4 : the amount of angiotensin I formed by keeping at 4° C. of plasma collected after dosing the test compound.

renin = target: T1, renin (Homo sapiens, UniProt P00797); assay: Inhibition of human plasma renin activity (angiotensin I formation, RIA); format: biochemical; details: endogenous renin and angiotensinogen, pH 6.0, 37° C, 90 minutes, RIA of Ang I
T1 construct: endogenous renin and angiotensinogen in plasma; from tissue; host or cells: pooled human plasma (EDTA) from male volunteers
T1 sequence (P00797 67-406): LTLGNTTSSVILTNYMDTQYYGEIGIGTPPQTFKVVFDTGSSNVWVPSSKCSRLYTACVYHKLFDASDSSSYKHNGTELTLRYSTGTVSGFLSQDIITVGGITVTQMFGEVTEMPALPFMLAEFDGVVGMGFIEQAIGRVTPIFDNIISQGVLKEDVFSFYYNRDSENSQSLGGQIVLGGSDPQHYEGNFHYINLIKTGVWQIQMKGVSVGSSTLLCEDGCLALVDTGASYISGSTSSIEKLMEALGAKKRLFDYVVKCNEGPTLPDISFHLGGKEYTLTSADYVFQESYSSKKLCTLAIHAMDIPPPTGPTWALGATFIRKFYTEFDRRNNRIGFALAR
Experimental: Human plasma was collected from male volunteers pretreated with no drugs and used as a pool. Disodium salt of ethylenediaminetetraacetic acid (EDTA) was used as the anticoagulant. Plasma renin activity was measured as the rate of angiotensin I (Ang I) formation after incubation (37° C) of the endogenous renin and angiotensinogen in plasma at pH 6.0. The incubation mixture contained 250 μl of plasma, 5 μl of (phenylmethyl)sulfonyl fluoride, 30 μl of buffer (sodium, potassium-phosphate, pH 6.0), and 15 μl of an appropriate concentration of test compound in 50% ethyl alcohol-water vehicle. The Ang I formed after 90 minutes of incubation was measured by radioimmunoassay (RIA) which was carried out with a commercial kit, RENCTK 100 (manufactured by Commissariat A L'energic Atomique). Samples were incubated in duplicate and each tube was measured in duplicate in the RIA. Percentage inhibition of plasma renin activity was calculated by comparing the amount of Ang I produced with and without a test compound. The concentration of test compound that inhibited plasma renin activity by 50% (IC50) was determined by Probit method.

[1] = test system: mean arterial blood pressure (MAP); assay: Hypotensive effect after oral administration to conscious sodium-depleted cynomolgus monkeys (maximum percentage fall of MAP); format: in vivo, cynomolgus monkeys (Macaca fascicularis); details: 0-6 hours
Experimental: as §1, §2
The Map was measured at 0 (predosing base line), 0.5, 1, 2, 3, 4 and 6 hours after administration of the test compound. The maximum hypotensive effect was calculated as the maximum percentage fall of MAP from the pretreatment value.

IC50 (renin) | SMILES | Maximum inhibition of PRA (%) (plasma renin; 32 mg/kg (po)) | Maximum hypotensive effect (%) ([1]; 32 mg/kg (po)) | Maximum inhibition of PRA (%) (plasma renin; 3.2 mg/kg (po)) | Maximum hypotensive effect (%) ([1]; 3.2 mg/kg (po))
25 nM | CC(C)CC[C@H](O)[C@H](CC1CCCCC1)NC(=O)[C@H](Cc1c[nH]cn1)N(C)C(=O)[C@H](Cc1ccccc1)OC(=O)N(C)CCC(=O)N1CCOCC1 [(5)] | 92% | 18% |  | 
4 nM | CC(C)CC[C@H](O)[C@H](CC1CCCCC1)NC(=O)[C@H](Cc1c[nH]cn1)N(C)C(=O)[C@H](Cc1ccccc1)OC(=O)N(C)CCN(C)C(=O)N1CCOCC1 [(23)] |  |  | 99% | 19%
8.7 nM | CC(C)CC[C@H](O)[C@H](CC1CCCCC1)NC(=O)[C@H](Cc1c[nH]cn1)N(C)C(=O)[C@H](Cc1ccccc1)OC(=O)N(C)CCN(C)C(=O)C(C)C [(24)] |  |  | 93% | 15%
